From patent US8044068B2, “Aminopyrrolidine compound” (Taisho Pharmaceutical Co., Ltd, priority 2006, dated 2011)
pIC50: −log10 of the molar value.

biological target: T1, human MC4 receptor (Homo sapiens, UniProt P32245); experiment: MC4 receptor binding experiment ([125I]Nle4-D-Phe7-α-MSH displacement); details: human MC4 receptor expressing HEK-293 cell membrane; [125I]Nle4-D-Phe7-α-MSH 0.2 nM, 25° C.
T1 construct: purchased Biolinks K.K; host or cells: HEK-293
Description: The MC4 receptor binding experiment was performed according to the method described in Pharmacology & Toxicology, 79, 161-165, 1996. The human MC4 receptor expressing-cell membrane obtained by expressing the human MC4 receptor in a HEK-293 cell was purchased from Biolinks K.K. The cell membrane was homogenized with 50 mM tris hydrochloride buffer (pH 7.4) containing 2 mM ethylenediaminetetraacetic acid, 10 mM calcium chloride, and 100 μM phenylmethylsulfonyl fluoride. The homogenate was centrifuged at 48,000×g at 4° C. for 20 min. The sediment obtained by centrifugation was rehomogenized with the same buffer, and the homogenate was centrifuged at 48,000×g at 4° C. for 20 min. This procedure was repeated twice. The sediment was suspended in 50 mM tris hydrochloride buffer (pH 7.4) containing 2 mM ethylenediaminetetraacetic acid, 10 mM calcium chloride, 100 μM phenylmethylsulfonyl fluoride, and 0.1% bovine serum albumin at a protein concentration of 100 μg/ml, and the suspension was used as a crude membrane preparation for the binding experiment. The crude membrane preparation (0.25 ml, 25 μg protein) was reacted with [^125I]Nle^4-D-Phe^7-α-MSH (final concentration, 0.2 nM) at 25° C. for 120 min. After completion of the reaction, the reaction solution was filtered by suction, using a cell harvester for the receptor binding experiment, onto a GF/C glass fiber filter paper immersed in 50 mM tris hydrochloride buffer (pH 7.4) containing 0.5% bovine serum for 2 h. Radioactivity on the filter paper was measured using a γ counter. The quantity of binding in the presence of 1 μM Nle^4-D-Phe^7-α-MSH was obtained as nonspecific binding, and specific binding was obtained by deducting the nonspecific binding from the total quantity, binding in the absence of 1 μM Nle^4-D-Phe^7-α-MSH. The test drug was dissolved in 100% DMSO solution and added to the membrane preparation at the same time as [^125I]Nle^4-D-Phe^7-α-MSH. The IC50 value was obtained from the inhibition curve in the range of 10^−10 to 10^−5 M. The binding test results of representative compounds are shown in Table 21 as examples.

T1 sequence (P32245 whole entry): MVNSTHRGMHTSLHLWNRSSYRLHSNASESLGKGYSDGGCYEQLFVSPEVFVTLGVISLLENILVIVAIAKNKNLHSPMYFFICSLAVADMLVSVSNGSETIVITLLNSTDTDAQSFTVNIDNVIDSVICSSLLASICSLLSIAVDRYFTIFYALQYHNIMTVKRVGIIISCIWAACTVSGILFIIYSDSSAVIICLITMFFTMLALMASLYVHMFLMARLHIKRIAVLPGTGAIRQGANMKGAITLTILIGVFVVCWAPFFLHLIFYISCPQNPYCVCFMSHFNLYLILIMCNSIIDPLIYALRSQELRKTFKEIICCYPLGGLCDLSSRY

| pIC50 | Structure (SMILES) |
| --- | --- |
| 7.80 | Cc1cc(N2CCOCC2)cc(N[C@@H]2CN(C(=O)Cc3ccc(OC(F)(F)F)cc3)C[C@H]2O)n1 [Compound 14-001, 1-((3R,4R)-3-hydroxy-4-(6-methyl-4-morpholin-4-ylpyridin-2-ylamino)pyrrolidin-1-yl)-2-(4-trifluoromethoxyphenyl)ethanone] |
| 7.72 | CO[C@@H]1CN(C(=O)Cc2ccc(OC(F)(F)F)cc2)C[C@H]1Nc1cc(N2CCOCC2)cc(C)n1 [Compound 14-002] |
| 8.13 | CO[C@@H]1CN(C(=O)Cc2ccc(OC(F)(F)F)cc2)C[C@H]1Nc1cc(N2CCS(=O)(=O)CC2)cc(C)n1 [Compound 14-003] |
| 7.59 | O=C1CN(c2nc(N[C@H]3CCN(C(=O)C4(c5ccc(Cl)cc5)CC4)C3)nc3cc(F)ccc23)CCN1 [Compound 15-003] |
